Data published in US20230089867A1, “CYCLIC PENTAMER COMPOUNDS AS PROPROTEIN CONVERTASE SUBTILISIN/KEXIN TYPE 9 (PCSK9) INHIBITORS FOR THE TREATMENT OF METABOLIC DISORDER” (Novartis AG, priority 2018, published 2023).
One block for each compound: values may come before it.

Target: human PCSK9 (Homo sapiens, UniProt Q8NBP7)
Assay: PCSK9 ligand binding TR-FRET assay (interference with binding of human PCSK9 to human LDLR)
Details: for Max % inhibition: PCSK9 FRET assay, efficacy (Amax), 100% = 1 uM unlabeled human PCSK9, 0% = DMSO; for IC50: TR-FRET, human PCSK9 Alexa Fluor 647 / human LDLR extracellular domain-Europium Kryptate, read-out: PCSK9 FRET Assay IC50
Procedure, shortened: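 Threefold compound dilutions were pre-incubated 30 min with PCSK9, after which 4 nM Europium Kryptate-tagged human LDLR ectodomain was added for a further 2 h.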

Chain of human PCSK9 (Q8NBP7 153-692): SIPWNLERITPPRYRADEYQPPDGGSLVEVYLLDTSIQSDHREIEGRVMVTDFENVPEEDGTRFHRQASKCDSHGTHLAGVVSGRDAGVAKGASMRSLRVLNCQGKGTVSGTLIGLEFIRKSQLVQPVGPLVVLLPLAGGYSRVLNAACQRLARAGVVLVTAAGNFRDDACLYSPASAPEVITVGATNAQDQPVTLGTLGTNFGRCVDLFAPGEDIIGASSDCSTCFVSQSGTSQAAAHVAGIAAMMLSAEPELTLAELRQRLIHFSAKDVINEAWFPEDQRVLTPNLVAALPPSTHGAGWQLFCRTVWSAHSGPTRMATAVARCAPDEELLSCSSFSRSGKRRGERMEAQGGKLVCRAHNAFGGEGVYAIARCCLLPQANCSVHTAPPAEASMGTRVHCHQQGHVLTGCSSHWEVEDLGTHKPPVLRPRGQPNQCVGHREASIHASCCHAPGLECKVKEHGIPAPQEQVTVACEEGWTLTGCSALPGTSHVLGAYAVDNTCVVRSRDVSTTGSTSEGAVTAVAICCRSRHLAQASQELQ
Chain of human PCSK9 (Q8NBP7 31-152 partner limits assumed): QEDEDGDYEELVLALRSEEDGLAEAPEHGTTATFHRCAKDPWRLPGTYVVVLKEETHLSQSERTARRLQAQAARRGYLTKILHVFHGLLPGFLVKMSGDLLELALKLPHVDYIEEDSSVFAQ

SMILES: COC[C@@H]1NC(=O)[C@H](COC)N(Cc2ccc(Cl)cc2Oc2ccc(-c3cnc(CN(C)C)n3C)cc2)C(=O)C[C@@H](Cc2ccccc2)C(=O)N(C)[C@@H](C)CNC(=O)C[C@H](Cc2ccc(Cl)cc2)N(C)C1=O [Compound 78, (2S,5S,8S,13S,16R)-16-benzyl-1-(4-chloro-2-(4-(2-((dimethylamino)methyl)-1-methyl-1H-imidazol-5-yl)phenoxy)benzyl)-8-(4-chlorobenzyl)-2,5-bis(methoxymethyl)-7,13,14-trimethyl-1,4,7,11,14-pentaazacyclooctadecane-3,6,10,15,18-pentaone]
Max % inhibition: 97.49%
IC50: 94.6 nM

SMILES: COC[C@@H]1NC(=O)[C@H](C)N(Cc2ccc(Cl)cc2Oc2ccc(-c3cnc(CN4CCCC4)n3C)cc2)C(=O)C[C@@H](Cc2cccc(OC(F)(F)F)c2)C(=O)N(C)[C@@H](C)CNC(=O)C[C@H](Cc2ccc(Cl)cc2)N(C)C1=O [Compound 206, (2S,5S,8S,13S,16R)-1-(4-chloro-2-(4-(1-methyl-2-(pyrrolidin-1-ylmethyl)-1H-imidazol-5-yl)phenoxy)benzyl)-8-(4-chlorobenzyl)-5-(methoxymethyl)-2,7,13,14-tetramethyl-16-(3-(trifluoromethoxy)benzyl)-1,4,7,11,14-pentaazacyclooctadecane-3,6,10,15,18-pentaone]
Max % inhibition: 99.72%
IC50: 5.8 nM

SMILES: COC[C@@H]1NC(=O)[C@H](C)N(Cc2ccc(Cl)cc2Oc2ccc(-c3cnc(CN(C)C)n3C)cc2)C(=O)C[C@@H](Cc2cccc(C(F)F)c2)C(=O)N(C)[C@@H](C)CNC(=O)C[C@H](Cc2ccc(Cl)cc2)N(C)C1=O [Compound 56, (2S,5S,8S,13S,16R)-1-(4-chloro-2-(4-(2-((dimethylamino)methyl)-1-methyl-1H-imidazol-5-yl)phenoxy)benzyl)-8-(4-chlorobenzyl)-16-(3-(difluoromethyl)benzyl)-5-(methoxymethyl)-2,7,13,14-tetramethyl-1,4,7,11,14-pentaazacyclooctadecane-3,6,10,15,18-pentaone]
Max % inhibition: 101.80%
IC50: 2.6 nM

SMILES: CC[C@H]1C(=O)N[C@@H](CO)C(=O)N(C)[C@@H](Cc2ccc(Cl)cc2)CC(=O)NC[C@H](C)N(C)C(=O)[C@H](Cc2ccccc2)CC(=O)N1Cc1ccc(Cl)cc1Oc1ccc(-c2cnc(CN(C)C)n2C)cc1 [Compound 207, (2S,5S,8S,13S,16R)-16-benzyl-1-(4-chloro-2-(4-(2-((dimethylamino)methyl)-1-methyl-1H-imidazol-5-yl)phenoxy)benzyl)-8-(4-chlorobenzyl)-2-ethyl-5-(hydroxymethyl)-7,13,14-trimethyl-1,4,7,11,14-pentaazacyclooctadecane-3,6,10,15,18-pentaone]
Max % inhibition: 102.49%
IC50: 2.2 nM

SMILES: COC[C@@H]1NC(=O)[C@H](C)N(Cc2ccc(Cl)cc2Oc2ccc(-c3cnc(CN(C)C)n3C)cc2)C(=O)CCC(=O)N(C)CCNC(=O)C[C@H](Cc2ccc(Cl)cc2)N(C)C1=O [Compound 141, (2S,5S,8S)-1-(4-chloro-2-(4-(2-((dimethylamino)methyl)-1-methyl-1H-imidazol-5-yl)phenoxy)benzyl)-8-(4-chlorobenzyl)-5-(methoxymethyl)-2,7,14-trimethyl-1,4,7,11,14-pentaazacyclooctadecane-3,6,10,15,18-pentaone]
Max % inhibition: 102.37%
IC50: 882 nM

The remaining lines, values ahead:

Max % inhibition: 102.97%
IC50: 1.4 nM
SMILES: COC[C@@H]1NC(=O)[C@H](CC(=O)OC(C)(C)C)N(Cc2ccc(Cl)cc2Oc2ccc(-c3cnc(CN(C)C)n3C)cc2)C(=O)C[C@@H](Cc2ccccc2)C(=O)N(C)[C@H]2CCCC[C@@H]2NC(=O)C[C@H](Cc2ccc(Cl)cc2)N(C)C1=O [Compound 237, tert-butyl 2-((4S,7S,10S,14R,16aS,20aS)-14-benzyl-11-(4-chloro-2-(4-(2-((dimethylamino)methyl)-1-methyl-1H-imidazol-5-yl)phenoxy)benzyl)-4-(4-chlorobenzyl)-7-(methoxymethyl)-5,16-dimethyl-2,6,9,12,15-pentaoxodocosahydrobenzo[l][1,4,7,11,14]pentaazacyclooctadecin-10-yl)acetate]

Max % inhibition: 95.33%
IC50: 6.6 nM
SMILES: COC[C@@H]1NC(=O)[C@H](C)N(Cc2c(F)cc(F)cc2Oc2ccc(-c3cnc(CN(C)C)n3C)cc2)C(=O)C[C@@H](Cc2ccccc2)C(=O)N(C)[C@@H](C)CNC(=O)C[C@H](Cc2ccc(Cl)cc2)N(C)C1=O [Compound 236, (2S,5S,8S,13S,16R)-16-benzyl-8-(4-chlorobenzyl)-1-(2-(4-(2-((dimethylamino)methyl)-1-methyl-1H-imidazol-5-yl)phenoxy)-4,6-difluorobenzyl)-5-(methoxymethyl)-2,7,13,14-tetramethyl-1,4,7,11,14-pentaazacyclooctadecane-3,6,10,15,18-pentaone]

Max % inhibition: 91.51%
IC50: 3.5 nM
SMILES: C[C@H]1CNC(=O)C[C@H](Cc2ccc(Cl)cc2)N(C)C(=O)[C@H](CC(=O)O)NC(=O)[C@H](C)N(Cc2ccc(Cl)cc2Oc2ccc(-c3cnc(CN(C)C)n3C)cc2)C(=O)C[C@@H](Cc2ccccc2)C(=O)N1C [Compound 213, 2-((2S,5S,8S,13S,16R)-16-benzyl-1-(4-chloro-2-(4-(2-((dimethylamino)methyl)-1-methyl-1H-imidazol-5-yl)phenoxy)benzyl)-8-(4-chlorobenzyl)-2,7,13,14-tetramethyl-3,6,10,15,18-pentaoxo-1,4,7,11,14-pentaazacyclooctadecan-5-yl)acetic acid]

Max % inhibition: 46.03%
IC50: 77.8 nM
SMILES: COC[C@@H]1NC(=O)[C@H](C)N(Cc2c(Cl)cccc2Oc2ccc(-c3cnc(CN(C)C)n3C)cc2)C(=O)C[C@@H](C)C(=O)N(C)[C@@H](C)CNC(=O)C[C@H](Cc2ccc(Cl)cc2)N(C)C1=O [Compound 230, (2S,5S,8S,13S,16R)-1-(2-chloro-6-(4-(2-((dimethylamino)methyl)-1-methyl-1H-imidazol-5-yl)phenoxy)benzyl)-8-(4-chlorobenzyl)-5-(methoxymethyl)-2,7,13,14,16-pentamethyl-1,4,7,11,14-pentaazacyclooctadecane-3,6,10,15,18-pentaone]

Max % inhibition: 96.17%
IC50: 5.7 nM
SMILES: COC[C@@H]1NC(=O)[C@H](C)N(Cc2cccc(F)c2Oc2ccc(-c3cnc(CN(C)C)n3C)cc2)C(=O)C[C@@H](Cc2ccccc2)C(=O)N(C)[C@@H](C)CNC(=O)C[C@H](Cc2ccc(Cl)cc2)N(C)C1=O [Compound 232, (2S,5S,8S,13S,16R)-16-benzyl-8-(4-chlorobenzyl)-1-(2-(4-(2-((dimethylamino)methyl)-1-methyl-1H-imidazol-5-yl)phenoxy)-3-fluorobenzyl)-5-(methoxymethyl)-2,7,13,14-tetramethyl-1,4,7,11,14-pentaazacyclooctadecane-3,6,10,15,18-pentaone]

Max % inhibition: 54.20%
IC50: 3.9 nM
SMILES: COC[C@@H]1NC(=O)[C@H](C)N(Cc2ccc(Cl)cc2Oc2ccc(-c3cncc(CN4CCCC4)c3C)cc2)C(=O)C[C@@H](Cc2ccccc2)C(=O)N(C)[C@@H](C)CNC(=O)C[C@H](Cc2ccc(Cl)cc2)N(C)C1=O [Compound 301, (2S,5S,8S,13S,16R)-16-benzyl-1-(4-chloro-2-(4-(4-methyl-5-(pyrrolidin-1-ylmethyl)pyridin-3-yl)phenoxy)benzyl)-8-(4-chlorobenzyl)-5-(methoxymethyl)-2,7,13,14-tetramethyl-1,4,7,11,14-pentaazacyclooctadecane-3,6,10,15,18-pentaone]
